# Data reported in US20040175447A1, “Feeds and fertilizers containing pentacyclic triterpenes” (The Nisshin OilliO, Ltd., priority 2001, published 2004).
# Test system: B-16 melanoma cells
# Assay: Evaluation of melanin production-inhibitory effect (cell-whitening degree of cultured B-16 melanoma cells); for Melanin production-inhibitory effect (cell-whitening degree): key: ++: The whitening degree is higher than that observed for the positive control; +: The whitening degree is almost identical to that observed for the positive control; ±: The whitening degree is not higher than that observed for the positive control, but higher than that observed for the control; −: The whitening degree is almost identical to that observed for the control
# Format: cell-based
# Conditions: for melanogenesis-inhibitory function relative to that observed when 450 ppm of vitamin C-magnesium phosphate (standard) is added: from Table 1; for Melanin production-inhibitory effect (cell-whitening degree): positive control 450 ppm vitamin C-magnesium phosphate
# Protocol: In the present invention, the melanogenesis-inhibitory effect is evaluated and compared on the basis of the results of tests for examining the melanogenesis-inhibitory function in which B-16 melanoma cells are cultivated, as a primary evaluation. Moreover, a feed is, for instance, practically prepared and its effectiveness in the melanogenesis-inhibition is evaluated as a secondary evaluation. It has been confirmed that the pentacyclic triterpenes whose strong melanogenesis-inhibitory function is confirmed by the cell culture test as the primary evaluation also show an excellent effect in the secondary evaluation test. In addition, it has also been confirmed that there is a correlation between the results obtained in these two evaluation methods.
# If the culture system includes a melanogenesis-inhibitory substance during the proliferation thereof, the blackening of the cells is suppressed while the whitening thereof is relatively promoted. Accordingly, the melanogenesis-inhibitory function of the substance can be evaluated by comparing the degree of whitening observed for the substance with the degree of blackening observed for a control. The evaluated results of the melanogenesis-inhibitory effect obtained in this cell culture system clearly indicate that the pentacyclic triterpenes and/or physiologically acceptable salts thereof or derivatives thereof have quite strong melanogenesis-inhibitory effects. For instance, when comparing the effects thereof with that achieved by vitamin C-magnesium phosphate, the melanogenesis-inhibitory effect is about 100 to 200 times, for maslinic acid, about 100 to 200 times, for maslinic acid salts, about 10 to 100 times, for erythrodiol, about 30 to 120 times, for uvaol, about 30 to 120 times, for betulinic acid, about 10 to 100 times, for betulin, about 100 to 200 times, for ethyl maslinate, about 50 to 150 times, for acetylated maslinic acid, about 30 to 120 times, for triethylsilylated maslinic acid, about 50 to 150 times, for stearoyl derivative of ethyl maslinate, about 10 to 100 times, for acetylated erythrodiol, about 10 to 100 times, for acetylated uvaol, about 10 to 100 times, for ethyl betulinate, and about 5 to 50 times, for acetylated betulin, that observed for the vitamin C-magnesium phosphate.
# A culture medium was dispensed to wells of a 6-well plate (2 mL/well each), followed by inoculation of a desired amount of B-16 melanoma cells on each well, allowing the wells to stand at 37° C. and 5% CO2 to thus cultivate the cells. On the day subsequent thereto, a candidate sample (pentacyclic triterpenes) solution prepared was added to and mixed with the culture medium containing the cells and the cultivation was continued. The culture medium was replaced with fresh one on the 5th day from the initiation of the cultivation and the prepared sample solution was again added to the wells. On the next day, the culture medium was removed to recover the cells, followed by the washing of these cells with PBS (phosphate buffered physiological saline) and the subsequent evaluation of the cell-whitening degree. In this respect, the melanogenesis-inhibitory function was evaluated by comparing the cell-whitening degree thus obtained with that observed when using 450 ppm of vitamin C-magnesium phosphate as a known whitening agent (a positive control) and that obtained when any candidate sample was not used (control), according to the following evaluation criteria.
# The evaluation criteria for the cell-whitening degree are as follows:
# Regarding the results listed in Table 1, the whitening degree observed when adding 450 ppm of vitamin C-magnesium phosphate is selected as a standard.
Structure (SMILES),concentration required for showing the effect identical to that observed for 450 ppm of vitamin C-magnesium phosphate [ppm],melanogenesis-inhibitory function relative to that observed when 450 ppm of vitamin C-magnesium phosphate (standard) is added,Melanin production-inhibitory effect (cell-whitening degree) (10 ppm),Melanin production-inhibitory effect (cell-whitening degree) (15 ppm),Melanin production-inhibitory effect (cell-whitening degree) (25 ppm),Melanin production-inhibitory effect (cell-whitening degree) (50 ppm),Melanin production-inhibitory effect (cell-whitening degree) (100 ppm),Melanin production-inhibitory effect (cell-whitening degree) (200 ppm),Melanin production-inhibitory effect (cell-whitening degree) (300 ppm),Melanin production-inhibitory effect (cell-whitening degree) (450 ppm),Melanin production-inhibitory effect (cell-whitening degree) (2 ppm),Melanin production-inhibitory effect (cell-whitening degree) (4 ppm),Melanin production-inhibitory effect (cell-whitening degree) (6 ppm),Melanin production-inhibitory effect (cell-whitening degree) (8 ppm)
"CC1(C)CC[C@]2(C(=O)O)CC[C@]3(C)C(=CC[C@@H]4[C@@]5(C)C[C@@H](O)[C@H](O)C(C)(C)[C@@H]5CC[C@]43C)[C@@H]2C1 [Purified maslinic acid 1, maslinic acid]",4,about 110 times,,,,,,,,,,,,
"O=c1cc(CO)occ1O [Kojic Acid, reference compound]",,,−,−,−,±,±,+,++,++,,,,
"CCOC(=O)[C@]12CCC(C)(C)C[C@H]1C1=CC[C@@H]3[C@@]4(C)C[C@@H](O)[C@H](O)C(C)(C)[C@@H]4CC[C@@]3(C)[C@]1(C)CC2 [Compound of Synthesis 1, Ethyl Ester of Maslinic Acid]",,about 110 times,++,,,,,,,,±,+,++,++
